Key:
β-carotene fading test = format: biochemical; conditions: 20 μM in reaction liquid, 60° C. for 60 minutes, absorbance 470 nm; average ± SD of three runs
Procedure: β-carotene will fade due to the reaction of linoleic acid peroxide, which is produced by the autoxidation of linoleic acid, with a double bond in β-carotene. This phenomenon was utilized so as to determine the antioxidant activity of each of Compounds 1 to 4 and the like. That is, first of all, 2 ml of a 200 mg/ml solution of Tween-40 in chloroform, 0.4 ml of a 100 mg/ml solution of linoleic acid in chloroform, and 3 ml of a 0.1 mg/ml solution of β-carotene in chloroform were mixed, and thereafter the solvent was removed by using a nitrogen gas. Subsequently, 100 ml of distilled water was added thereto, and adequately stirred to obtain an emulsion. To 3 ml of this emulsion, ethanol was added to completely dissolve the solute in the solvent. Thereafter, each of Compounds 1 to 4 was dissolved in ethanol so as to prepare a sample solution having a concentration of 1.2 mM. 50 μl of the sample solution was mixed with the above emulsion wherein the solute had been completely dissolved so as to prepare a reaction liquid (or a sample reaction liquid). Then the concentration of each of Compounds 1 to 4 in the reaction liquid was 20 μM. The reaction liquid was incubated at 60° C. for 60 minutes. Then the absorbance of each of the reaction liquid before the incubation and the reaction liquid after the incubation was determined at 470 nm. Furthermore, BHT, α-tocopherol, or eriodictyol was used in place of Compounds 1 to 4 so as to determine the absorbance of the reaction liquid before and after incubation according to a similar procedure to the above-mentioned one. In addition, as a control, a reaction liquid (or a control reaction liquid) wherein no sample solution was contained was prepared so as to determine the absorbance of the reaction liquid before and after incubation according to a similar procedure to the above-mentioned one. The antioxidant activity (%) of each of the materials was calculated using the following calculation formula 2. Incidentally, each of values shown in Table 1 is the average value and standard deviation of values obtained from three runs. (Antioxidant Activity)=[{(Fading Rate of Control)−(Fading Rate of Sample Solution)}/(Fading Rate of Control)]×100 Calculation Formula 2
It should be noted that in the calculation formula 2, “Fading Rate of Control” is the natural logarithm of a value which is acquired by dividing the absorbance of the control reaction liquid before incubation by the absorbance of the control reaction liquid after incubation and further by dividing the resultant value by 60; and “Fading Rate of Sample Solution” is the natural logarithm of a value which is acquired by dividing the absorbance of the sample reaction liquid before incubation by the absorbance of the sample reaction liquid after incubation and further by dividing the resultant value by 60.

[1] = DPPH radical scavenging activity test; format: biochemical; conditions: 25 μM sample solution in ethanol, 1 h in dark, absorbance 517 nm; average ± SD of three runs
Procedure: DPPH (α,α-diphenyl-β-picrylhydradil) is a purple stable radical having a maximum absorption at 517 nm, which is converted into colorless hydrazine by gaining hydrogen. This color reaction was utilized so as to determine the radical scavenging activity of each of Compounds 1 to 4 and the like. That is, each of Compounds 1 to 4 was dissolved in ethanol to prepare 3 ml of a sample solution having a concentration of 25 μM. Thereafter, to each of the resultant sample solutions, 0.75 ml of a 0.5 mM DPPH solution (whose solvent was ethanol) was added and stirred, and reacted in a dark place for one hour, followed by the determination of an absorbance at 517 nm. Furthermore, in place of Compounds 1 to 4, BHT (butylated hydroxytoluene), α-tocopherol or eriodictyol was used so as to determine an absorbance according to a similar procedure to the above. Besides, instead of the above sample solutions, ethanol was used as a control so as to determine an absorbance according to a similar procedure to the above. Then the radical scavenging activity (%) of each of the materials was calculated using the following calculation formula 1. Incidentally, each of values shown in Table 1 is the average value and standard deviation of values obtained from three runs. (Radical Scavenging Activity)=[{(Absorbance of Control)−(Absorbance of Sample Solution)}/(Absorbance of Control)]×100 Calculation Formula 1

[2] = tested on: breast cancer cells (MCF-7); experiment: Breast cancer cell proliferation-inhibition test; format: cell-based; conditions: 0.1 nM estradiol, Control 1 at 0 day = 1
Procedure: When breast cancer cells (MCF-7) are cultured, if estradiol (or 17β-estradiol) having a cell-proliferation accelerating action, is added thereto, the proliferation of breast cancer cells can be simply promoted in a short period. This phenomenon was utilized so as to examine the effect of each of Compounds 1 to 4 and the like on the proliferation inhibition of breast cancer cells. That is, first of all, each of Compounds 1 to 4 was diluted with dimethyl sulfoxide to prepare a sample solution. Thereafter, 2×10^3 of MCF-7 were inoculated in each well of a 96-well plate, and estradiol and the sample solution were added thereto after 4 hours. Estradiol was added to each compartment so that the final concentration of estradiol can be 0.1 nM, and the final concentration of the sample solution can be 0.2 μM, 2 μM, or 20 μM. After incubation for a predetermined period of time (three or five days), each of the media was replaced with a new medium, and an enzyme solution (Cell counting Kit-8: Wako) was added to the new medium in an amount of 10% of the new medium. After maintained the medium in an incubator at a temperature of 37° C. for two hours, the absorbance of the medium was determined at a wavelength of 450 nm (a reference wave length of 630 nm) by means of a spectrophotometer so as to quantify the number of living cells in each compartment.
As for the compartment whose incubation period is predetermined to be five days, on the third day of the incubation, the medium was replaced with a new medium, and thereafter, estradiol and a sample solution were added to the new medium, and the incubation was continued till fifth day. As for the compartment whose incubation period is predetermined to be 0 day, at four hours after the cells were inoculated, an enzyme solution was added to the medium. The medium was maintained in an incubator at a temperature of 37° C. for two hours, followed by determining the absorbance.
Instead of Compounds 1 to 4, eriodictyol was used to determine the absorbance according to a similar procedure to the above-mentioned one, and thus the number of living cells in each compartment was quantified. Furthermore, Control 1 to which neither estradiol nor a sample had been added was used to determine the absorbance according to a similar procedure to the above-mentioned one, and thus the number of living cells in each compartment was quantified, while Control 2 to which no sample had been added was used to determine the absorbance according to a similar procedure to the above-mentioned one, and thus the number of living cells in each compartment was quantified.
When it is assumed that the number of living cells of Control 1 as quantified after a zero-day incubation period is 1, the relative value of living cells as quantified in each of the runs mentioned above is shown in Table 2. Incidentally, each of values shown in Table 2 is the average value and standard deviation of values obtained from eight wells.

SMILES | Antioxidant Activity (%) from β-carotene Fading Test (β-carotene fading test) | Radical Scavenging Activity (%) from DPPH Radical Scavenging Activity Test [1] | Relative Value of Living Cells ([2]; 0.2 μM sample, after 3-days incubation) | Relative Value of Living Cells ([2]; 0.2 μM sample, after 5-days incubation) | Relative Value of Living Cells ([2]; 0.2 μM sample, on 0-day incubation, mean ± SD of eight wells) | Relative Value of Living Cells ([2]; 2 μM sample, after 3-days incubation) | Relative Value of Living Cells ([2]; 2 μM sample, after 5-days incubation) | Relative Value of Living Cells ([2]; 2 μM sample, on 0-day incubation) | Relative Value of Living Cells ([2]; 20 μM sample, after 3-days incubation) | Relative Value of Living Cells ([2]; 20 μM sample, after 5-days incubation) | Relative Value of Living Cells ([2]; 20 μM sample, on 0-day incubation)
Cc1cc(C(C)(C)C)c(O)c(C(C)(C)C)c1 [BHT, butylated hydroxytoluene, reference compound] | 85.02 ± 1.89% | 28.51 ± 7.48% |  |  |  |  |  |  |  |  | 
O=C1C[C@@H](c2ccc(O)c(O)c2)Oc2cc(O)cc(O)c21 [Eriodictyol, eriodictyol, reference compound] | 81.47 ± 2.48% | 68.82 ± 1.12% | 2.88 ± 0.22 | 7.33 ± 0.60 | 0.96 ± 0.04 | 2.90 ± 0.13 | 7.16 ± 0.36 | 0.98 ± 0.07 | 2.54 ± 0.30 | 5.13 ± 0.62 | 1.01 ± 0.05
Cc1c(C)c2c(c(C)c1O)CC[C@@](C)(CCC[C@H](C)CCC[C@H](C)CCCC(C)C)O2 [α-tocopherol, reference compound] | 93.00 ± 0.73% | 58.87 ± 1.24% |  |  |  |  |  |  |  |  | 

Source: patent US7829591B2, “Flavanone compound and uses thereof” (Pokka Corporation, priority 2003, dated 2010)
